According to US20050208496A1, “Methods of testing for bronchial asthma or chronic obstructive pulmonary disease” (Genox Research, Inc., priority 2002, published 2005):

Test system: respiratory epithelial cells
Details: lot 2 Day 7 AI

Substance: IL-13: human IL-13 (Peprotech, Inc.) added to the medium at 50 ng/mL to stimulate respiratory epithelial cells
- AI770116 (70124_at) expression change: −5.1
- AI798733 (64163_at) expression change: −3.3
- AI829641 (84270_at) expression change: −39.5
- AI917602 (49985_at) expression change: −4.1
- AI923984 33546_at expression change: −4.4
- AI948584 48086_at expression change: −13.1
- AI971023 48539_at expression change: −5.3
- AI984780 (52384_s_at) expression change: −4
- AL040936 (45684_at) expression change: −4.5
- AQP5 32909_at expression change: −4.2
- ARHGEF4 36524_at expression change: −6.6
- ARHV (82231_at) expression change: −4
- AW022213 (79520_at) expression change: −5.4
- AW025596 52634_at expression change: −9
- AW025596 52637_g_at expression change: −20.6
- B4GALT5 56373_at expression change: −2.5
- BPGM (51261_at) expression change: −2.4
- CBLB 514_at expression change: −3.2
- CBLB 35632_at expression change: −2.1
- COL12A1 (44730_at) expression change: −6.8
- CRABP-II 1057_at expression change: −12.7
- CRABP-II 41783_at expression change: −11.3
- Clorf28 50075_at expression change: −5.7
- DHCR24 (74557_s_at) expression change: −6.8
- DKFZp434K1210 44682_at expression change: −2.4
- DREV1 (63813_at) expression change: −2.1
- DSC3 (79615_at) expression change: −2.4
- DSC3a, b 47119_at expression change: −2.7
- DSC3a, b 79615_at expression change: −2.4
- EIF4EBP1 (54152_at) expression change: −2.7
- EVPK 39569_at expression change: −2.7
- FKBP5 (46271_at) expression change: −21.2
- FLJ10298 (62490_f_at) expression change: −5.4
- FLJ10718 52072_at expression change: −8.7
- FLJ12541 43546_at expression change: −7.4
- FLJ20048 (49196_at) expression change: −2
- FLJ20373 54030_at expression change: −1.7
- FLJ20500 43853_at expression change: −2.4
- FLJ23309 45563_f_at expression change: −2.4
- FLJ23516 47534_at expression change: −3.2
- GABRP 40339_at expression change: −28
- GAS41 (64121_at) expression change: −2
- GJA1 32531_at expression change: −5.5
- GK (61873_at) expression change: −2.1
- GPD2 42720_at expression change: −2.8
- GSTA3 58023 at expression change: −9.1
- HEY1 44783_s_at expression change: −9.2
- HIN-1 (46200_at) expression change: −38.7
- HSPC195 44705_at expression change: −5.1
- ID1 36619_r_at expression change: −2.5
- IL20RA 42969_at expression change: −2.9
- IVL 36355_at expression change: −10.6
- K1IAA1102 (64345_s_at) expression change: −4.9
- KCNMA1 (47575_g_at) expression change: −7
- KCNMA1 (53796_at) expression change: −6.1
- KIAA0878 (48793_at) expression change: −2
- KIAA1376 (62972_at) expression change: −3.9
- KIAA1376 (64047_at) expression change: −4.2
- KIAA1547 58531_g_at expression change: −2.6
- KLF7 (42769_at) expression change: −4.7
- KRT6B (62998_at) expression change: −5.5
- LCE 45605_at expression change: −2.6
- LMO4 1452_at expression change: −3.9
- LOC51297 (49616_at) expression change: −24.3
- LOC51297 (55440_at) expression change: −33.7
- LOC51297 (55442_g_at) expression change: −33.7
- LOC51316 (63342_at) expression change: −5
- LOC55893 (64071_at) expression change: −2.6
- LOC129642 (42065_at) expression change: −4.9
- LOC129642 (58288_at) expression change: −4.5
- LOC131177 (43849_s_at) expression change: −13.3
- LOC131177 (45394_s_at) expression change: −7.1
- MGC12536 46924_at expression change: −3.1
- MGC14128 55924_at expression change: −4.1
- MGC14128 (51669_r_at) expression change: −5
- MGC14597 (46030_at) expression change: −5.4
- MGC16207 43412_s_at expression change: −2.8
- MGC16207 (65876_at) expression change: −3.4
- N52554 47432_at expression change: −1.7
- N71183 52473_at expression change: −3
- PR01489 57777_at expression change: −4.5
- PSCA (63958_at) expression change: −9.8
- RGC32 (57044_s_at) expression change: −2.4
- RIN1 1778_g_at expression change: −7.5
- SCNN1B 39682_at expression change: −15
- SCYB14 (65823_at) expression change: −2.5
- SEMA4B (46709_at) expression change: −2.5
- SERPINA3 (75248_at) expression change: −46.4
- SLC11A3 (45826_at) expression change: −3.8
- SLC34A2 (48048_at) expression change: −4.3
- SPON2 52576_s_at expression change: −5.8
- SPRR1B 37160_at expression change: −2.8
- STEAP 40297_at expression change: −3.7
- T52027 (63150_at) expression change: −3.5
- TGFBI (68339_at) expression change: −4.9
- TNFAIP2 (74633_at) expression change: −4.2
- TNNT1 36113_s_at expression change: −12.2
- TNRC3 41246_at expression change: −5
- TPM1 36790_at expression change: −4.8
- TPM1 36791_g_at expression change: −6
- TPM1 36792_at expression change: −6.3
- UCP2 37591_at expression change: −45.5
- UGB 39220_at expression change: −62.8
- VEGFC 1934_s_at expression change: −4.3
- VIM 34091_s_at expression change: −11.6
- W55956 46700_at expression change: −2.7
- W72331 49486 at expression change: −11.4
